Measurements taken from patent US20210322508A1, “PEPTIDES AND COMPOSITIONS FOR TARGETED TREATMENT AND IMAGING” (SIGNABLOK, INC., priority 2018, published 2021).
Non-standard residues stand in square brackets, D forms with d. Residues, ends and D or L forms follow the SMILES beside them. No end group written: not given here. Met(O) = CS(=O)CC[C@H](N)C(=O)O; PTX = not defined here

How the values were obtained:
[1] = system: mice with collagen-induced arthritis (CIA); experiment: collagen-induced arthritis (CIA) in mice; conditions: CIA mice
Text: As described herein, starting on day 24 after immunization, mice with CIA were intraperitoneally (i.p.) administered daily for 14 consecutive days with vehicle (black diamonds), dexamethasone (black squares), GF9 (white circles), GF9-LPC (black circles) and GA/E31-LPC (half black half white circles) at indicated doses. Daily clinical scores were given on a scale of 0-5 for each of the paws on days 24-38. On day 38, mice were killed and the histopathological examination of mouse joints was performed. Histopathological scores of inflammation (I), pannus (P), cartilage damage (CD), bone resorption (BR) and periosteal new bone formation (PBF) are shown. Summed histopathology scores were calculated as the sum of all five histopathological parameters. All results are expressed as the mean±SEM (n=10 mice per group).
Mouse body weight (BW) was measured every other day from day 24 to day 38. Mean BW changes were calculated as a percentage of the difference between beginning (day 24) and final (day 38) BWs of the CIA mice intraperitoneally (i.p.) treated daily for 14 consecutive days with vehicle, dexamethasone, GF9, GF9-LPC and GA/E31-LPC at indicated doses. All results are expressed as the mean±SEM (n=10 mice per group).
Plasma was collected on days 24, 30 and 38 from arthritic mice treated with vehicle (black diamonds), GF9 (white circles), GF9-LPC (black circles) and GA/E31-LPC (half black half white circles). Plasma samples were analyzed for concentrations of interleukin-1b (IL-1b), IL-6, and colony-stimulating factor 1 (CSF1). Results are expressed as the mean±SEM (n=5 mice per group).

[2] = system: DBA/1 mice with collagen-induced arthritis; experiment: Collagen-induced arthritis (CIA) model; conditions: 5 mg/kg i.p. daily 14 days, free peptides
Protocol: Animal studies were performed by Bolder BioPATH (Boulder, Colo., USA). CIA was induced in male 6- to 7-week-old DBA/1 mice by immunization with bovine type II collagen. Briefly, mice were injected intradermally with 100 μl of Freund's complete adjuvant containing 250 μg of bovine type II collagen (2 mg/ml final concentration) at the base of the tail on day 0 and again on day 21. On day 24, mice were randomized by body weight into treatment groups. […] Mice were weighed on study days 24, 26, 28, 30, 32, 34, 36 and 38 (prior to necropsy). Daily clinical scores were given on a scale of 0-5 for each of the paws on days 24-38. On day 38, mice were killed for necropsy.
At the end of study, fore paws, hind paws and knees were harvested, fixed in 10% neutral buffered formalin for 1-2 days, and then decalcified in 5% formic acid for 4-5 days before standard processing for paraffin embedding. Sections (8 μm) were cut and stained with toluidine blue (T blue). Hind paws, fore paws and knees were embedded and sectioned in the frontal plane. Six joints from each animal were processed for histopathological evaluation. The joints were then assessed using 0-5 scale for inflammation, pannus formation, cartilage damage, bone resorption and periosteal new bone formation. A summed histopathology score (sum of five parameters, 0-25 scale) was also determined.
Animal studies were performed by Bolder BioPATH (Boulder, Colo., USA). CIA was induced in male 6- to 7-week-old DBA/1 mice by immunization with bovine type II collagen. Briefly, mice were injected intradermally with 100 μl of Freund's complete adjuvant containing 250 μg of bovine type II collagen (2 mg/ml final concentration) at the base of the tail on day 0 and again on day 21. On day 24, mice were randomized by body weight into treatment groups. […] Starting day 24, mice were injected i.p. intraperitoneally daily for 14 consecutive days with 5 mg/kg G-KV21, G-HV21, G-TE21, M-TK32 and M-VE32 or with PBS (vehicle). Mice were weighed on study days 24, 26, 28, 30, 32, 34, 36 and 38 (prior to necropsy). Daily clinical scores were given on a scale of 0-5 for each of the paws on days 24-38. On day 38, mice were killed for necropsy.

J774 macrophages = experiment: in vitro macrophage uptake (endocytosis) of rho B-labeled peptides and lipopeptide complexes; format: cell-based, murine; conditions: 1 h pretreatment: 40 μM cytochalasin D, 400 μg/mL fucoidan, 10 μM BLT-1; uptake 4 h and 22 h
Protocol: In Vitro Macrophage Uptake of GF9HDL and GA/E31HDL A quantitative in vitro macrophage assay of endo-cytosis of rho B-labeled HDL-mimicking lipopeptide complexes by J774 macrophage was performed as described. (18-20) Briefly, BALB/c murine macrophage J774A.1 cells (ATCC) were cultured at 37° C. with 5% CO2 in Dulbecco's modified Eagle's medium (Cellgro Mediatech, Manassas, Va.) with 2 mM glutamine, 100 U/mL penicillin, 0.1 mg/mL streptomycin, and 10% heat-inactivated fetal bovine serum (Cellgro Mediatech) and grown to approximately 90% confluency in 12-well tissue culture plates (Corning Costar, Corning, N.Y.).
Cells were washed twice using phosphate-buffered saline and lysed using Passive Lysis Buffer (Promega, Madison, Wis.). Rho B fluorescence was measured in the lysates with 544-nm excitation and 590-nm emission filters, using a Fluoroscan Ascent CF fluorescence microplate reader (Thermo Labsystems, Vantaa, Finland). Protein concentrations in the lysates were measured using Bradford reagent (Sigma-Aldrich) and an MRX microplate reader (Dynex Technologies, Chantilly, Va.) according to the manufacturer's recommended protocol.

PVNS patients = conditions: cited from earlier work
TGCT patients = conditions: cited from earlier work
human cancer xenografts = experiment: PTX-TREM-1/TRIOPEP tumor suppression in human cancer xenografts; format: in vivo; conditions: free and SLP-bound form
Text: Tumor suppression studies using PTX-TREM-1/TRIOPEP formulations in free or SLP-bound form can be performed in animal models of cancer similarly as described herein (see e.g., the examples 7 and 8). Female 6-8 week old NU/J mice can be obtained from the Jackson Laboratory (Bar Harbor, Me.) Human cancer cell lines including but not limited to human carcinoma, human pancreas or human breast cancer cell lines can be obtained from ATCC. […] Human cancer xenografts are established by injecting subcutaneously into the right flanks certain amounts of viable cells per mouse. […] When tumor grows to approximately 125 mm^3 (100-150 mm^3), animals are pair-matched by tumor size into treatment and control groups. Either PTX (TAXOL®; 30 mg/kg PTX) or PTX-TREM-1/TRIOPEP formulations in free (60 mg/kg PTX) or SLP-bound (30 mg/kg PTX) are intravenously administered to the animals via tail vein. Clinical observations, body weights and tumor volume measurements are made twice a week once tumors become measureable. It should be noted that TAXOL® is formulated with a detergent Cremophor that in itself is cytotoxic and is also the source of numerous side effects during chemotherapy. The Cremophor content of TAXOL® is about 80× that of paclitaxel per ml.

[3] = system: Hepa 1-6 syngeneic hepatocellular carcinoma; conditions: orthotopic Hepa 1-6, Wu et al. 2019, cited from earlier work
[4] = molecular target: T1, TREM-1 (triggering receptor expressed on myeloid cells-1) on murine J774A.1 macrophages (mouse, UniProt Q9JKE2 21-230); experiment: confocal immunofluorescence on macrophages, labelled peptide against TREM-1 staining; colocalisation only, no direct binding assay
T1 construct: whole, on cells; the cells are murine
T1 sequence (looked up): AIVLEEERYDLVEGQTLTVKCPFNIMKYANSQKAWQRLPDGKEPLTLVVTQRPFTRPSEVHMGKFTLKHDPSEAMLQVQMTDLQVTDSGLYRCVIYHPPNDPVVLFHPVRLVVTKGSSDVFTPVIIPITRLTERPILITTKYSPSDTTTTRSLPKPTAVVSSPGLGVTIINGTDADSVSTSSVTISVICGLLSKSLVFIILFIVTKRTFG
Protocol: Immunofluorescence analysis of TREM-1 and TREM-1/TRIOPEP in the cell membrane was performed using the standard, well-known in the art methods as described in Shen and Sigalov J Cell Mol Med 2017, 21:2524-2534, and Rojas et al. 2018, herein incorporate by reference.
BALB/c murine macrophage J774A.1 cells were grown at 37° C. in six-well tissue culture plates containing glass coverslips. After reaching target confluency of approximately 50%, cells were incubated for 6 h at 37° C. with Dylight 488-labeled GF9 or TREM-1/TRIOPEP-sSLP that contained Dylight 488-labeled GE31. TREM-1 staining was performed was performed using an Alexa 647-labeled rat anti-mouse TREM-1 antibody (Bio-Rad, Hercules, Calif.). ProLong Gold Antifade DAPI (4′,6′-diamidino-2-phenylindole) mounting medium was used to mount coverslips, and the slides were photographed using an Olympus BX60 fluorescence microscope. Confocal imaging was performed with a Leica TCS SP5 II laser scanning confocal microscope.

CSCC[C@H](NC(=O)[C@H](CCC(=O)O)NC(=O)[C@H](CCC(=O)O)NC(=O)[C@H](CCC(N)=O)NC(=O)[C@H](Cc1c[nH]c2ccccc12)NC(=O)[C@H](CCCCN)NC(=O)[C@H](CCCCN)NC(=O)[C@H](CCC(N)=O)NC(=O)[C@H](Cc1ccccc1)NC(=O)[C@H](CC(=O)O)NC(=O)[C@H](CC(=O)O)NC(=O)[C@H](CC(C)C)NC(=O)[C@H](Cc1ccc(O)cc1)NC(=O)[C@@H]1CCCN1C(=O)[C@H](Cc1ccccc1)NC(=O)[C@H](Cc1ccc(O)cc1)NC(=O)[C@H](CCCCN)NC(=O)[C@H](CC(C)C)NC(=O)[C@@H](NC(=O)[C@@H]1CCCN1C(=O)[C@@H](NC(=O)[C@H](CCCCN)NC(=O)[C@H](Cc1c[nH]c2ccccc12)NC(=O)[C@@H](N)CCSC)[C@@H](C)O)[C@@H](C)O)C(=O)N[C@@H](CCC(=O)O)C(=O)N[C@@H](CC(C)C)C(=O)N[C@@H](Cc1ccc(O)cc1)C(=O)N[C@@H](CCCNC(=N)N)C(=O)N[C@@H](CCC(N)=O)C(=O)N[C@@H](CCCCN)C(=O)N[C@H](C(=O)N[C@@H](CCC(=O)O)C(=O)O)C(C)C [M-VE32] (H-MWKTPTLKYFPYLDDFQKKWQEEMELYRQKVE-OH)
tolerability in arthritic mice (body weight changes) ([1]; day 24 to day 38): well-tolerated by arthritic mice
arthritis (clinical arthritis score) ([1]; treatment days 24-38): ameliorate the disease
CIA severity; bone and cartilage damage [2]: ameliorates CIA and protects against bone and cartilage damage

fucoidan [reference compound]
effect of scavenger receptor inhibitor on macrophage uptake of GF9-HDL and GA/E31-HDL (J774 macrophages): substantially suppressed endocytosis of TREM-1 inhibitor complexes at 22 hours but not at 4 hours

C=C1[C@@H](C)[C@H]2[C@H](Cc3ccccc3)NC(=O)[C@]23[C@H](OC(C)=O)/C=C/[C@@](C)(O)C(=O)[C@@H](C)C/C=C/[C@H]3[C@@H]1O [cytochalasin D, reference compound]
effect of scavenger receptor inhibitor on macrophage uptake of GF9-HDL and GA/E31-HDL (J774 macrophages): significantly inhibited

Cc1ccc(NC(=O)c2ccc(CN3CCN(C)CC3)cc2)cc1Nc1nccc(-c2cccnc2)n1 [Imatinib]
symptomatic improvement (PVNS patients; 16 of 22 patients assessable for symptoms): 73%
overall response rate per RECIST (PVNS patients; 27 evaluable patients, Cassier et al. 2012): 19%
stable disease (PVNS patients; Twenty of 27 patients): 74%

FC(F)(F)c1ccc(CNc2ccc(Cc3c[nH]c4ncc(Cl)cc34)cn2)cn1 [Pexidartinib]
tumor volume (TGCT patients; Phase 2 study): prolonged regression in tumor volume in most patients
liver toxicity (TGCT patients; Phase 3 study suspended): two reported cases of nonfatal, serious liver toxicity
partial response (TGCT patients; extension study, 23 patients, Tap et al. 2015): 12 patients
stable disease (TGCT patients; extension study, 23 patients): 7 patients

PTX-GFLSKSLVFPLGEEMRDRARAHVDALRTHLA ({PTX}-GFLSKSLVFPLGEEMRDRARAHVDALRTHLA; reading uncertain; also: printed as PTX-GFLSKSLVFPLGEEMRDRARAHVDALRTHLA) [PTX-TREM-1/TRIOPEP]
anticancer activity (tumor inhibition, survival rate) as compared to PTX (human cancer xenografts): anticipated to have a significantly higher anticancer activity
tolerability in cancer mice as compared to PTX (human cancer xenografts): anticipated to be substantially better tolerated by cancer mice

GLLSKSLVF [mGF9, murine GF9 peptide]
tumor growth and survival, combined with anti-PD-L1 antibody ([3]; 25 mg/kg i.p. daily): synergistically inhibits tumor growth and improves survival

CCCCCCC1CCCC1=NNC(N)=S (stereo not drawn) [BLT-1, Blocker of lipid transport 1, reference compound]
effect of scavenger receptor inhibitor on macrophage uptake of GF9-HDL and GA/E31-HDL (J774 macrophages): similarly inhibited the uptake of the complexes at both time points but to a lesser extent

GLLSGSLVF [mGF9-G, control murine GF9-G peptide, reference compound]
tumor growth (and survival), standalone treatment [3]: do not affect tumor growth and survival

B1: TREM-1-related trifunctional peptide (TREM-1/TRIOPEP) GE31, methionine sulfoxidized (peptide)
peptide: GFLSKSLVFPYLDDFQKKWQEE[Met(O)]ELYRQKVE
modifications: not fully specified; printed as GFLSKSLVFPYLDDFQKKWQEEM(O)ELYRQKVE; also: delivered in spherical synthetic lipopeptide particles (TREM-1/TRIOPEP-sSLP)
notes: In the cytokine assays it was used as an equimolar mixture with GA31; also called TREM-1 modulatory peptide GE31
binding result [4]: binds
